What all share (assay type): cell-based
Assay [1] has as its system Pseudomonas aeruginosa (ATCC 10145). Kind of assay: MBC determination. Here is the method: (§1) After 24 hours of incubation, the colonies were counted.
Assay [2] relates to methicillin-resistant Staphylococcus aureus (ATCC 33591). Kind of assay: MBC determination. As for the experimental part:
as §1

For assay [3], the system named is Candida albicans (ATCC 10231). Kind of assay: MBC determination. Here is the method:
as §1

For assay [4], the system named is Escherichia coli (ATCC 10536). Kind of assay: MBC determination. As for the experimental part:
as §1

In assay [5] the test system is Pseudomonas aeruginosa (ATCC 10145). Kind of assay: MIC determination by broth dilution. As for the experimental part: (§2) The MICs were determined by the broth dilution method. […] The assays were performed in duplicate.
On the technique in general: In broth dilution the organism is exposed to a series of concentrations in liquid medium.

Assay [6] deals with methicillin-resistant Staphylococcus aureus (ATCC 33591). Kind of assay: MIC determination by broth dilution. As for the experimental part: as §2
In assay [7] the test system is Candida albicans (ATCC 10231). Kind of assay: MIC determination by broth dilution. Here is the method:
as §2

Assay [8] deals with Escherichia coli (ATCC 10536). Kind of assay: MIC determination by broth dilution. Here is the method:
as §2

Setting [9] is: compound alone, P. aeruginosa (ATCC 10536 [sic]).
Setting [10] is: compound alone, MRSA ATCC 33591.
[11] abbreviates: compound alone, C. albicans ATCC 10231.
[12] abbreviates: compound alone, E. coli ATCC 10536.
Setting [13] is: compound alone, P. aeruginosa (ATCC 10536 [sic]), 2 days at 37° C.
The mark [14] stands for this setting: compound alone, MRSA ATCC 33591, 2 days at 37° C.
The mark [15] stands for this setting: compound alone, C. albicans ATCC 10231, 2 days at 37° C.
[16] abbreviates: compound alone, E. coli ATCC 10536, 2 days at 37° C.
The mark [17] stands for this setting: Staphylococcus aureus, ATCC 33591 / MRSA, 48 h, compound alone, MRSA ATCC 33591, 2 days at 37° C., read-out: MIC.

MBC and MIC data for 10 compounds are collected here from US5776919A, “Potentiators of antimicrobial activity” (priority 1996, dated 1998).

In brackets after ≈: the same amount, converted by molar mass. Several values for one entry are separate records, joined by “and”; a condition that tells them apart may be missing. Identical values can stand only once. Like-named read-outs stand apart in the source and are kept apart here.

By MIC is commonly meant the lowest concentration found to suppress growth. With polymyxin B [reference compound], the MBC worked out at 6.25 µg/mL in assay [1] (setting [9]), 800 µg/mL in assay [2] (setting [10]), 1600 µg/mL in assay [3] (setting [11]) and 3.13 µg/mL in assay [4] (setting [12]). The minimum inhibitory concentration (MIC) is 6.25 µg/mL in assay [5] (setting [13]), 800 µg/mL in assay [6] (setting [14]), 800 µg/mL in assay [7] (setting [15]) and 3.13 µg/mL in assay [8] (setting [16]).

`C=CC/C=C\C/C=C\CCCCCCCc1cccc(O)c1C(=O)O` [Anacardic Acid (15:3)]: the MIC in assay [6] (setting [14]) turned out to be 6.25 µg/mL (≈ 0.0182 mM).

In assay [6] (setting [14]), Anacardic Acid had an MIC of 6.25 µg/mL.

Consider `CCCCCCCCCCCO` [Undecanol, n-undecanol], for which the MIC in assay [6] (setting [17]) is 50 µg/mL (≈ 0.29 mM).

As for `CCC/C=C/C=O` [2-Hexenal, t-2-hexenal], the MBC in assay [1] (setting [9]) amounted to 400 µg/mL (≈ 4.08 mM); in assay [2] (setting [10]) it was 800 µg/mL (≈ 8.15 mM); in assay [4] (setting [12]), 400 µg/mL (≈ 4.08 mM). In addition, the minimal inhibitory concentration (MIC) was 200 µg/mL (≈ 2.04 mM) in assay [5] (setting [13]); 400 µg/mL (≈ 4.08 mM) in assay [6] (setting [14]); 200 µg/mL and 400 µg/mL in assay [8] (setting [16]).

`CCCCCCCCCCCCO` [Dodecanol, n-dodecanol]: the MIC in assay [6] (setting [17]) was determined as 80 µg/mL (≈ 0.429 mM).

Regarding `COc1cccc(OC)c1C(=O)N[C@@H]1C(=O)N2[C@@H]1SC(C)(C)[C@@H]2C(=O)O` [Methicillin, methicillin, reference compound], the minimum inhibitory concentration (MIC) in assay [6] (setting [17]) came out at 800 µg/mL (≈ 2.1 mM).

`c1ccc2[nH]ccc2c1` [Indole, indole]: the MBC came to 800 µg/mL (≈ 6.83 mM) in assay [1] (Pseudomonas aeruginosa, ATCC 10145 / ATCC 10536); 800 µg/mL (≈ 6.83 mM) in assay [2] (Staphylococcus aureus, ATCC 33591 / MRSA); 800 µg/mL (≈ 6.83 mM) in assay [3] (Candida albicans, ATCC10231); 800 µg/mL (≈ 6.83 mM) in assay [4] (Escherichia coli, ATCC10536). Besides, the MIC in assay [5] (Pseudomonas aeruginosa, ATCC 10145 / ATCC 10536, 48 h) was 400 µg/mL (≈ 3.41 mM); in assay [6] (Staphylococcus aureus, ATCC 33591 / MRSA, 48 h), 800 µg/mL (≈ 6.83 mM); in assay [7] (Candida albicans, ATCC10231, 48 h), 400 µg/mL (≈ 3.41 mM); in assay [8] (Escherichia coli, ATCC10536, 48 h), 800 µg/mL (≈ 6.83 mM).

Take `CCCCCCCCCCCCCO` [Tridecanol, n-tridecanol]: the MIC in assay [6] (setting [17]) was 50 µg/mL (≈ 0.25 mM).

On to polymyxin E [reference compound], for which the MBC was 12.5 µg/mL in assay [1] (setting [9]), 1600 µg/mL in assay [3] (setting [11]) and 6.25 µg/mL in assay [4] (setting [12]). Also, the MIC in assay [5] (setting [13]) was 6.25 µg/mL; in assay [7] (setting [15]) it was 1600 µg/mL; in assay [8] (setting [16]) it was 3.13 µg/mL.
